Drawing on US9809623B2, “α4β7 peptide monomer and dimer antagonists” (Protagonist Therapeutics, Inc., priority 2014, dated 2017), this text covers IC50 and half-life for 10 compounds.

By pIC50 is commonly meant −log10 of the IC50, conventionally taken in molar units.

pIC50: −log10 of the molar value. Numbered stars: 1 amine (or outer) side, 2 acyl side, 3 side chain; on linkers, the order of the positions; unused ones are H or OH. Bridge positions count the residues as written; N and C are the ends. Square brackets hold non-standard residues; d marks the D form. Peptide text beside a SMILES is read from it. I, II: the chains in the order shown. 2Nal = N[C@@H](Cc1ccc2ccccc2c1)C(=O)O; Diglycolyl = O=C(COCC(=O)[*:2])[*:1]; NMeR = CN[C@@H](CCCNC(=N)N)C(=O)O; Pen = CC(C)(S)[C@H](N)C(=O)O

The target in series [1] is T1, α4β1 (Homo sapiens, UniProt P05556+P13612, DEL729-798).
T1 construct: purchased R&D Systems 5668-A4
As to the kind of experiment: α4β1-VCAM Competition ELISA. The settings on record: Table 4-B; read-out: ELISA_α4β1 IC50. Type of series: binding. An outline of the steps:
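Recombinant α4β1 (60 nM final) competed with serially diluted peptides (top final 100 μM) for VCAM-1 Fc coated at 400 ng/well, in Tris pH 7.6 with 1 mM MnCl2 or MgCl2, for 2 h at 37 °C. Bound integrin was detected with anti-CD49d 9F10 plus HRP anti-mouse IgG, using TMB read at 450 nm.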
Background: An ELISA detects its analyte on a solid surface through an enzyme-linked reagent.

The nature of series [2]: Simulated Intestinal Fluid (SIF) Stability Assay. Type of series: in vitro ADME, porcine. As to conditions: pig, simulated intestinal fluid (SIF) with 1% porcine pancreatin, pH 6.5, Table 4-C, t1/2; > means assay stopped at that time; read-out: SIF (porcine) Min. A digest of the protocol: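 Peptides (22 μM final) incubated at 37 °C in FASSIF (pH 6.5) with 1% porcine pancreatin; aliquots quenched at various times and analyzed by LC-MS/MS against internal standard. Half-life from first-order exponential decay fit of percent remaining.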

Series [3] has as its target α4β7 (Homo sapiens, UniProt P13612+P26010). Kind of series: α4β7-MAdCAM Cell Adhesion Assay (RPMI 8866 human cells). Type of series: cell-based. Also noted: host or cells: RPMI 8866 human B lymphoblastoid cells. The settings on record: Table 4-B; read-out: Cell Adhesion α4β7 IC50. An outline of the steps:
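Washed RPMI 8866 cells (200,000/well) in DMEM with 0.1% BSA, 10 mM HEPES pH 7, 1 mM MnCl2 adhered to rh MAdCAM-1/Fc-coated wells with serially diluted peptides, 30-45 min at 37 °C. After three washes, bound cells quantified by MTT, A570, cell-free background subtracted for dose response.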

Chain of α4β7 (P13612 34-1032): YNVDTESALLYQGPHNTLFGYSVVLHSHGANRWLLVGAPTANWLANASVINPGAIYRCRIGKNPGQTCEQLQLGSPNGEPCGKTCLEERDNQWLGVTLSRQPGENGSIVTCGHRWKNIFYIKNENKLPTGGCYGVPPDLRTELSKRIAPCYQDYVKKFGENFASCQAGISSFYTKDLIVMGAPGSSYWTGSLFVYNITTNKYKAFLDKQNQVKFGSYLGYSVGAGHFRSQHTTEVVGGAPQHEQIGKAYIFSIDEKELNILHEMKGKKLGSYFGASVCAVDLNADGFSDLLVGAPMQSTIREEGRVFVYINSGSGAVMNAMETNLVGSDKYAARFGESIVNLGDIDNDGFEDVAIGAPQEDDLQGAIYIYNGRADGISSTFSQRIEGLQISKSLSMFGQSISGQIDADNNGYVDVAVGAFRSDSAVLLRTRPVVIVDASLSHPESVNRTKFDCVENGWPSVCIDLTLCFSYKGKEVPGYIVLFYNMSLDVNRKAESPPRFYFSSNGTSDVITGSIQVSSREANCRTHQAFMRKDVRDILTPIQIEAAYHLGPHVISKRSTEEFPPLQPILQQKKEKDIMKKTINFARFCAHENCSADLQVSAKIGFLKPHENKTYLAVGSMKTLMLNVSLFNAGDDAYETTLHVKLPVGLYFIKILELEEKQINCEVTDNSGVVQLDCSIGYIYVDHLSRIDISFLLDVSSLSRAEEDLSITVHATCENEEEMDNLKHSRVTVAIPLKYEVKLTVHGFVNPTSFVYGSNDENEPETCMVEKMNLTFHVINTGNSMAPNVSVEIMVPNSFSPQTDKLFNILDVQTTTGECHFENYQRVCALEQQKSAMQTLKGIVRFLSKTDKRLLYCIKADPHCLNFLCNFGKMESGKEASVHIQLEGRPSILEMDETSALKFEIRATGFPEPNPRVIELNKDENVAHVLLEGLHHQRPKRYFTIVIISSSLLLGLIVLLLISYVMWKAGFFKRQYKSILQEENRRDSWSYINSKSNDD
Chain of α4β7 (P26010 20-798): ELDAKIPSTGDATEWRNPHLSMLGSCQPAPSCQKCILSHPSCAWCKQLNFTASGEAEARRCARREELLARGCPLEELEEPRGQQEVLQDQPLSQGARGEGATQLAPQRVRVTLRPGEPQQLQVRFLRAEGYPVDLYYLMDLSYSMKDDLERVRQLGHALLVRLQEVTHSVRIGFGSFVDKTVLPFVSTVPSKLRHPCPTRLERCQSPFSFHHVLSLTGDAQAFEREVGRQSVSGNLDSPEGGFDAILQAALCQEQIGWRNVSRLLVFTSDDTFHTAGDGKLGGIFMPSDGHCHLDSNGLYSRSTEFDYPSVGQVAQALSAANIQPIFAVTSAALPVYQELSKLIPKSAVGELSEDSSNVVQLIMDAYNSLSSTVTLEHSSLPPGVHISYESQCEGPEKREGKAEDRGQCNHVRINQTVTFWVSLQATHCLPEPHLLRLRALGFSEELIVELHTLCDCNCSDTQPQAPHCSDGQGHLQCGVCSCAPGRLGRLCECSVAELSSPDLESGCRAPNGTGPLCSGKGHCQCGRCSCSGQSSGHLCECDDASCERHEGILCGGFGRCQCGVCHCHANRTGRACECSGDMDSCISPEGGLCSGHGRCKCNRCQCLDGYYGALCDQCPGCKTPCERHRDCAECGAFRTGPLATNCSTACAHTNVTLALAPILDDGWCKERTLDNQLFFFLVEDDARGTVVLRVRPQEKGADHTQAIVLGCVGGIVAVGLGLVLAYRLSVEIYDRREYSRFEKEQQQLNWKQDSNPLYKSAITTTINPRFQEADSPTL
T1 sequence (P13612 34-977 limits assumed, stated change not applied): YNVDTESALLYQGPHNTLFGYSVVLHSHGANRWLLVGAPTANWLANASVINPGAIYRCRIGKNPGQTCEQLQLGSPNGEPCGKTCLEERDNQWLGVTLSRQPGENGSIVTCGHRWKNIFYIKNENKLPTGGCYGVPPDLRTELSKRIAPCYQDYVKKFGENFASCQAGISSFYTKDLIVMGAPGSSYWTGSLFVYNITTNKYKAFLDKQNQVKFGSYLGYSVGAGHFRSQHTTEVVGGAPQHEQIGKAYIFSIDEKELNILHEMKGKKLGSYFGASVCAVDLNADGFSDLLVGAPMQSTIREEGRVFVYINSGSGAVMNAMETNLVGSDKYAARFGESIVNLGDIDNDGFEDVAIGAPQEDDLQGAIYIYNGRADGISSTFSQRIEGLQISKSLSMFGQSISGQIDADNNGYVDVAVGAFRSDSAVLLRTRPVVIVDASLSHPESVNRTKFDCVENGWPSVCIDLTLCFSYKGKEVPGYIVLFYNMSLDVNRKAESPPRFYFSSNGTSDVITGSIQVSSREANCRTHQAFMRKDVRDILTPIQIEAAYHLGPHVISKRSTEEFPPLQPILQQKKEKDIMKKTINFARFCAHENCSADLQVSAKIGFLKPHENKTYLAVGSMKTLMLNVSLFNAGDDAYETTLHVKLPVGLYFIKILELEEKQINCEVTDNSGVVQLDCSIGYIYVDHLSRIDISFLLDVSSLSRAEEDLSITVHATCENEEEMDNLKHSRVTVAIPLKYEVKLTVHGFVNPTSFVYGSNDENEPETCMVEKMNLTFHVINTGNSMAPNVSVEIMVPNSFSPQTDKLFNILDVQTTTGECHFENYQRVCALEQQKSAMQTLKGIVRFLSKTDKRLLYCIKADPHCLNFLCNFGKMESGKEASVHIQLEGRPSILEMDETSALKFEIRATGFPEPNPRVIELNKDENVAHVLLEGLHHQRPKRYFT
T1 sequence (P05556 21-728 limits assumed, stated change not applied): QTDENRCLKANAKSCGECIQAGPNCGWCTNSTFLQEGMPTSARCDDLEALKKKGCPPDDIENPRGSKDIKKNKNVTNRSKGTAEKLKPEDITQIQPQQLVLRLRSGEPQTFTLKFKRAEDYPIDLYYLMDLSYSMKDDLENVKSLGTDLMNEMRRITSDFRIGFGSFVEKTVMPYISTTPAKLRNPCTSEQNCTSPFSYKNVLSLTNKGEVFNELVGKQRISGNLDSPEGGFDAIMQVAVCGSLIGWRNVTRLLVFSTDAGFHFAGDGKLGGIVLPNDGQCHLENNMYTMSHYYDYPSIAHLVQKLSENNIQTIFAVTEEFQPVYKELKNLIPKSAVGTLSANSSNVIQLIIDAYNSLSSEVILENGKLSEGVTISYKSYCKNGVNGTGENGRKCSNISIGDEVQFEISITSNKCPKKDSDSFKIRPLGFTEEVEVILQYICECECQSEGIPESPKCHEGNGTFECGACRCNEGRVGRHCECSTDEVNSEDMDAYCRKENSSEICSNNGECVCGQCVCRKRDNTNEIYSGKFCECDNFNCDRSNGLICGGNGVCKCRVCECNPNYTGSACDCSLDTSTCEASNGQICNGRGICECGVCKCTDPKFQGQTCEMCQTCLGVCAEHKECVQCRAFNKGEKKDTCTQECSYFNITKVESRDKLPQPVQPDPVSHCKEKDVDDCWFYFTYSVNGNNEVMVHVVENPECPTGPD

Take `CC(=O)N[C@H]1CSSC[C@@H](C(N)=O)NC(=O)[C@H](CC(C)C)NC(=O)[C@H]([C@@H](C)O)NC(=O)[C@H](CC(=O)O)NC(=O)[C@H](CO)NC(=O)[C@H](CCCNC(=N)N)NC1=O` [compound 195, Ac-C-R-S-D-T-L-C-NH2] (Ac-CRSDTLC-NH2; disulfide 1-7): the values for the pIC50 in series [1] and in series [3] were 5.54 and 5.91, respectively. Besides, the half-life at 22 μM in series [2] was under 0.0167 h.
The matching figures for `CC(=O)N[C@H]1CSSC[C@@H](C(=O)NCC(=O)N[C@@H](CCC(=O)O)C(=O)N[C@@H](CCCCN)C(N)=O)NC(=O)[C@H](CC(C)C)NC(=O)[C@H]([C@@H](C)O)NC(=O)[C@H](CC(=O)O)NC(=O)[C@H](CO)NC(=O)[C@H](CCCNC(=N)N)NC1=O` [compound 196, Ac-C-R-S-D-T-L-C-G-E-K-NH2] (Ac-CRSDTLCGEK-NH2; disulfide 1-7): 5.32, 5.18 and under 0.0667 h.
For the compound `CC(=O)N[C@H]1CSSC[C@@H](C(=O)NCC(=O)N[C@@H](CCC(=O)O)C(=O)N[C@@H](CCCCN)C(=O)O)NC(=O)[C@H](CC(C)C)NC(=O)[C@H]([C@@H](C)O)NC(=O)[C@H](CC(=O)O)NC(=O)[C@H](CO)NC(=O)[C@H](CCCNC(=N)N)N(C)C1=O` [compound 199, Ac-C-N-Me-R-S-D-T-L-C-G-E-K-OH] (Ac-C[NMeR]SDTLCGEK-OH; disulfide 1-7), the pIC50 in series [1] was under 4.00; in series [3] it was 5.33. For the same compound, the half-life at 22 μM in series [2] is 0.45 h.
The matching figures for `CC(=O)N[C@H]1CSSC[C@@H](C(=O)NCC(=O)N[C@@H](CCC(=O)O)C(=O)N[C@@H](CCCCNC(=O)COCC(=O)NCCCC[C@H](NC(=O)[C@H](CCC(=O)O)NC(=O)CNC(=O)[C@@H]2CSSC[C@H](NC(C)=O)C(=O)N(C)[C@@H](CCCNC(=N)N)C(=O)N[C@@H](CO)C(=O)N[C@@H](CC(=O)O)C(=O)N[C@@H]([C@@H](C)O)C(=O)N[C@@H](CC(C)C)C(=O)N2)C(=O)O)C(=O)O)NC(=O)[C@H](CC(C)C)NC(=O)[C@H]([C@@H](C)O)NC(=O)[C@H](CC(=O)O)NC(=O)[C@H](CO)NC(=O)[C@H](CCCNC(=N)N)N(C)C1=O` [compound 201, (Ac-C-N-Me-R-S-D-T-L-C-G-E-K-OH)2-DIG] (I: Ac-C[NMeR]SDTLCGEK-OH / II: Ac-C[NMeR]SDTLCGEK-OH; disulfide I:1-I:7, II:1-II:7 (inferred); linker I:10-II:10 via Diglycolyl (inferred)): 5.91, 7.55 and 0.3 h.
Consider `CC(=O)N[C@H]1CSSC(C)(C)[C@@H](C(=O)N[C@H](CCCCN)C(N)=O)NC(=O)[C@H](CC(C)C)NC(=O)[C@H]([C@@H](C)O)NC(=O)[C@H](CC(=O)O)NC(=O)[C@H](CO)NC(=O)[C@H](CCCNC(=N)N)N(C)C1=O` [compound 202, Ac-C-N-Me-R-S-D-T-L-Pen-k-NH2] (Ac-C[NMeR]SDTL[Pen][dK]-NH2; disulfide 1-7), for which the values for the negative-log IC50 (pIC50) in series [1] and in series [3] were 5.79 and 4.96, respectively. In series [2], the half-life at 22 μM was over 6 h.
Take `CC(=O)N[C@H]1CSSC(C)(C)[C@@H](C(=O)N[C@@H](Cc2c[nH]c3ccccc23)C(=O)N[C@H](CCCCNC(=O)COCC(=O)NCCCC[C@@H](NC(=O)[C@H](Cc2c[nH]c3ccccc23)NC(=O)[C@H]2NC(=O)[C@H](CC(C)C)NC(=O)[C@H]([C@@H](C)O)NC(=O)[C@H](CC(=O)O)NC(=O)[C@H](CO)NC(=O)[C@H](CCCNC(=N)N)N(C)C(=O)[C@@H](NC(C)=O)CSSC2(C)C)C(N)=O)C(N)=O)NC(=O)[C@H](CC(C)C)NC(=O)[C@H]([C@@H](C)O)NC(=O)[C@H](CC(=O)O)NC(=O)[C@H](CO)NC(=O)[C@H](CCCNC(=N)N)N(C)C1=O` [compound 204, (Ac-C-N-Me-R-S-D-T-L-Pen-W-k-NH2)2-DIG] (I: Ac-C[NMeR]SDTL[Pen]W[dK]-NH2 / II: Ac-C[NMeR]SDTL[Pen]W[dK]-NH2; disulfide I:1-I:7, II:1-II:7 (inferred); linker I:9-II:9 via Diglycolyl (inferred)): the pIC50 in series [1] was 6.33; in series [3], 7.66. In series [2], the half-life at 22 μM was over 6 h.
For `CC(=O)N[C@H]1CSSC(C)(C)[C@@H](C(=O)N[C@@H](CCC(=O)O)C(=O)N[C@H](CCCCNC(=O)COCC(=O)NCCCC[C@@H](NC(=O)[C@H](CCC(=O)O)NC(=O)[C@H]2NC(=O)[C@H](CC(C)C)NC(=O)[C@H]([C@@H](C)O)NC(=O)[C@H](CC(=O)O)NC(=O)[C@H](CO)NC(=O)[C@H](CCCNC(=N)N)N(C)C(=O)[C@@H](NC(C)=O)CSSC2(C)C)C(N)=O)C(N)=O)NC(=O)[C@H](CC(C)C)NC(=O)[C@H]([C@@H](C)O)NC(=O)[C@H](CC(=O)O)NC(=O)[C@H](CO)NC(=O)[C@H](CCCNC(=N)N)N(C)C1=O` [compound 205, (Ac-C-N-Me-R-S-D-T-L-Pen-E-k-NH2)2-DIG] (I: Ac-C[NMeR]SDTL[Pen]E[dK]-NH2 / II: Ac-C[NMeR]SDTL[Pen]E[dK]-NH2; disulfide I:1-I:7, II:1-II:7 (inferred); linker I:9-II:9 via Diglycolyl (inferred)), in that order: 6.35, 7.59 and over 6 h.
The matching figures for `CC(=O)N[C@@H]1C(=O)N(C)[C@@H](CCCNC(=N)N)C(=O)N[C@@H](CO)C(=O)N[C@@H](CC(=O)O)C(=O)N[C@@H]([C@@H](C)O)C(=O)N[C@@H](CC(C)C)C(=O)N[C@H](C(=O)N[C@@H](Cc2c[nH]c3ccccc23)C(=O)N[C@H](CCCCNC(=O)COCC(=O)NCCCC[C@@H](NC(=O)[C@H](Cc2c[nH]c3ccccc23)NC(=O)[C@H]2NC(=O)[C@H](CC(C)C)NC(=O)[C@H]([C@@H](C)O)NC(=O)[C@H](CC(=O)O)NC(=O)[C@H](CO)NC(=O)[C@H](CCCNC(=N)N)N(C)C(=O)[C@@H](NC(C)=O)C(C)(C)SSC2(C)C)C(N)=O)C(N)=O)C(C)(C)SSC1(C)C` [compound 209, (Ac-Pen-N-Me-R-S-D-T-L-Pen-W-k-NH2)2-DIG] (I: Ac-[Pen][NMeR]SDTL[Pen]W[dK]-NH2 / II: Ac-[Pen][NMeR]SDTL[Pen]W[dK]-NH2; disulfide I:1-I:7, II:1-II:7 (inferred); linker I:9-II:9 via Diglycolyl (inferred)): 6.43, 7.62 and over 3 h.
On to `CC(=O)N[C@@H]1C(=O)N(C)[C@@H](CCCNC(=N)N)C(=O)N[C@@H](CO)C(=O)N[C@@H](CC(=O)O)C(=O)N[C@@H]([C@@H](C)O)C(=O)N[C@@H](CC(C)C)C(=O)N[C@H](C(=O)N[C@@H](Cc2c[nH]c3ccccc23)C(=O)N[C@H](CCC(=O)O)C(=O)N[C@H](CCCCNC(=O)COCC(=O)NCCCC[C@@H](NC(=O)[C@@H](CCC(=O)O)NC(=O)[C@H](Cc2c[nH]c3ccccc23)NC(=O)[C@H]2NC(=O)[C@H](CC(C)C)NC(=O)[C@H]([C@@H](C)O)NC(=O)[C@H](CC(=O)O)NC(=O)[C@H](CO)NC(=O)[C@H](CCCNC(=N)N)N(C)C(=O)[C@@H](NC(C)=O)C(C)(C)SSC2(C)C)C(N)=O)C(N)=O)C(C)(C)SSC1(C)C` [compound 211, (Ac-Pen-N-Me-R-S-D-T-L-Pen-W-e-k-NH2)2-DIG] (I: Ac-[Pen][NMeR]SDTL[Pen]W[dE][dK]-NH2 / II: Ac-[Pen][NMeR]SDTL[Pen]W[dE][dK]-NH2; disulfide I:1-I:7, II:1-II:7 (inferred); linker I:10-II:10 via Diglycolyl (inferred)), for which the values for the negative logarithm of the IC50 (pIC50) in series [1] and in series [3] were 6.52 and 7.66, respectively. For the same compound, in series [2], the half-life at 22 μM was over 5 h.
`CC(=O)N[C@@H]1C(=O)N(C)[C@@H](CCCNC(=N)N)C(=O)N[C@@H](CO)C(=O)N[C@@H](CC(=O)O)C(=O)N[C@@H]([C@@H](C)O)C(=O)N[C@@H](CC(C)C)C(=O)N[C@H](C(=O)N[C@@H](Cc2ccc3ccccc3c2)C(=O)N[C@@H](CCC(=O)O)C(=O)N[C@H](CCCCNC(=O)COCC(=O)NCCCC[C@@H](NC(=O)[C@H](CCC(=O)O)NC(=O)[C@H](Cc2ccc3ccccc3c2)NC(=O)[C@H]2NC(=O)[C@H](CC(C)C)NC(=O)[C@H]([C@@H](C)O)NC(=O)[C@H](CC(=O)O)NC(=O)[C@H](CO)NC(=O)[C@H](CCCNC(=N)N)N(C)C(=O)[C@@H](NC(C)=O)C(C)(C)SSC2(C)C)C(N)=O)C(N)=O)C(C)(C)SSC1(C)C` [compound 212, (Ac-Pen-N-Me-R-S-D-T-L-Pen-2-Nal-E-k-NH2)2-DIG] (I: Ac-[Pen][NMeR]SDTL[Pen][2Nal]E[dK]-NH2 / II: Ac-[Pen][NMeR]SDTL[Pen][2Nal]E[dK]-NH2; disulfide I:1-I:7, II:1-II:7 (inferred); linker I:10-II:10 via Diglycolyl (inferred)): the pIC50 in series [1] is 7.15; in series [3], 8.60. In addition, the half-life at 22 μM in series [2] is 1.5 h.
